From US6251940A, “Inflammatory cell inhibitors” (British Biotech Pharmaceuticals Ltd., priority 1998, dated 2001)

Tests used:
Human PBMCs [1] = experiment: Inhibition of anti-CD3-induced T lymphocyte proliferation of PBMCs; type: cell-based; details: 48 hrs; for Inhibition of cell proliferation (in words), anti-CD3: range of dilutions
Experimental: Inhibition of Anti-CD3-induced T Lymphocyte Activation and Proliferation
(§1) The compounds of examples 1, 6, 19, 39, 40 and 43 above were tested for its effects on anti-CD3-driven proliferation of peripheral blood mononuclear cells (PBMCs) in vitro. The PBMCs were activated with anti-CD3 antibody which directly activates T lymphocytes via the T cell receptor CD3 component, although other cells do contribute to T cell proliferation by co-stimulation and growth factor production. Human PBMCs (5×10^4cells/well), purified from whole blood by centrifugation through ficoll/hypaque, were incubated in monoclonal anti-CD3 antibody-coated wells (5 μg/ml) and compound 1 at a range of dilutions in a 96 well microtitre plate for 48 hrs at 37° C. in a 5% CO2 incubator. DMSO was run in each assay as a vehicle control. 0.5 μCuries of tritiated thymidine in 40 μl (Amersham) were added to each well during the final 18 hrs. The cells were then harvested on glass fibre pads using a Tomtech cell harvester and, after adding scintillant to the pad (Meltilex) they were placed in a Wallac MicroBeta plate counter. The results obtained are in counts per minute and reflect the level of tritiated thymidine incorporation into the cells and therefore the level of cell proliferation. The percentage proliferation in test wells compared to control wells was calculated. The results were plotted and the IC50 value calculated.

[2] = tested on: Experimental Autoimmune Neuritis; experiment: Experimental Autoimmune Neuritis animal model; type: in vivo, Male Lewis rats; details: 100 mg.kg^-1 ip uid, day 1 to 14; day 15 post-inoculation; groups of 9
TNF alpha = experiment: Inhibition of TNF production in PWM-activated whole blood; type: cell-based; details: 10 μM, PWM-activated whole blood diluted 1/5, 24 hours; for TNF alpha: vehicle 1031 pg/ml
Experimental: (§2) Human PBMCs (2-5×10^6 cells/well), purified from whole blood by centrifugation through ficoll/hypaque, were incubated with either PWM (2.5 μg/ml) or PPD (1 μg/ml) and compound example 3 at 10 μM in a 24 well microtitre plates for 48 hrs at 37° C. in a CO2 incubator. DMSO was run in each assay as a vehicle control. Supernatant was removed after 48 hrs and microfuged at 10,000 rpm for 2 minutes. Supematant was removed, aliquotted and stored at -70° C. until tested.
In a modification of the above procedure, the compounds of Examples 19 and 40 were tested at 10 μM for inhibition of TNF production in PWM-activated whole blood diluted 1/5 in RPMI containing 1% nutridoma. The supernatants were tested after 24 hours of culture.

Human PBMCs [3] = experiment: Inhibition of antigen (PPD)-induced T lymphocyte proliferation of PBMCs; type: cell-based; details: PBMC, PPD 1 μg/ml, 72 hrs, tritiated thymidine, read-out: IC50, PBMCs stimulated with PPD
CD69 = CD69 expression on T cells activated by anti-CD3 (FACS); type: cell-based, Human; details: 4 hrs treatment; untreated cells 68%
Experimental: as §1, with “The results obtained are in counts per minute and reflect the level of tritiated thymidine incorporation into the cells and therefore the level of cell proliferation.” left out
CD69 is a membrane marker of T cell activation. The level of CD69 expression on the membranes of T cells activated by anti-CD3 was therefore measured by fluorescence activated cell (FACS) flow cytometry.

Human PBMCs [4] = experiment: Inhibition of mitogen (PWM)-induced lymphocyte proliferation of PBMCs; type: cell-based; details: PBMC, PWM 2.5 μg/ml, 48 hrs, tritiated thymidine, read-out: IC50, PBMCs stimulated with PWM
Experimental: Inhibition of Mitogen-induced Lymphocyte Proliferation
The compounds of examples 1, 2, 3, 6, 19, 39, 40 and 43 above were tested for their effects on the proliferation of peripheral blood mononuclear cells (PBMCs) in vitro. The PBMCs were activated with Pokeweed mitogen (PWM), a potent activator of lymphocytes and monocytes which leads to B and T lymphocyte proliferation.
Human PBMCs (2×10^4 cells/well), purified from whole blood by centrifugation through ficoll/hypaque, were incubated with PWM (2.5 μg/ml) and compounds 1 and 2 at a range of dilutions in 96 well microtitre plates for 48 hrs at 37° C. in a 5% CO2 incubator. DMSO was run in each assay as a vehicle control. 0.5 μCuries of tritiated thymidine in 40 μl (Amersham) were added to each well during the final 18 hrs. The cells were then harvested on glass fibre pads using a Tomtech cell harvester and, after adding scintillant to the pad (Meltilex) they were placed in a Wallac MicroBeta plate counter. The results obtained are in counts per minute and reflect the level of tritiated thymidine incorporation into the cells and therefore the level of cell proliferation. The percentage proliferation in test wells compared to control wells was calculated and the inhibition curves plotted. The IC50 values were calculated from the inhibition curves.

TNF [5] = experiment: Inhibition of production of TNF, PWM-activated PBMCs (ELISA); type: cell-based, Human; details: 48 hrs
Experimental: (§3) Inhibition of Production of TNF
(§4) The compound of example 3 above was tested for its effect on the production of the pro-inflammatory cytokine TNF. TNF is released from various cells (monocytes and B lymphocytes) following activation by mitogen or antigen. The production of this inflammatory mediator in the supernatant of activated PBMCs was measured by ELISA.
as §2

TNF [6] = experiment: Inhibition of production of TNF, PPD-activated PBMCs (ELISA); type: cell-based, Human; details: 48 hrs
Experimental: as §3, §4, §2

C=CC[C@H](C(=O)NO)[C@@H](CC(C)C)C(=O)N[C@@H](Cc1ccccc1)C(=O)OC1CCCC1 [Example 19, 2S-(3S-Hydroxycarbamoyl-2R-isobutyl-hex-5-enoylamino)-3-phenylpropionic acid cyclopentyl ester]
Inhibition of cell proliferation (in words), anti-CD3 (Human PBMCs [1]): inhibited cell proliferation in a dose related fashion | reduction in mean clinical score compared to vehicle group [2]: 93% | TNF production (in words) (TNF alpha): reduced the level of TNF production | TNF alpha (TNF alpha): 489 pg/mL | IC50 (Human PBMCs [3]): 1100 nM

C=CC[C@H](C(=O)NO)[C@@H](CC(C)C)C(=O)N[C@@H](Cc1ccccc1)C(=O)OC [Example 1, 2S-(3S-Hydroxycarbamoyl-2R-isobutyl-hex-5-enoylamino)-3-phenylpropionic acid methyl ester]
IC50 (Human PBMCs [1]; Homo sapiens, PBMC, anti-CD3 antibody-coated wells 5 μg/ml, tritiated thymidine, read-out: IC50, PBMCs stimulated with ANTI-CD3): 2100 nM | Inhibition of cell proliferation (in words), anti-CD3 (Human PBMCs [1]): inhibited cell proliferation in a dose related fashion | expression of CD69 (% of T cells) (CD69): 48% | IC50 (Human PBMCs [4]): 4700 nM | IC50 (Human PBMCs [3]): 2000 nM

CC(C)C[C@@H](C(=O)NC(C(=O)OC1CCCC1)c1ccccc1)[C@H](O)C(=O)NO (stereo partly drawn) [Example 43, 2-[2R-(S-Hydroxy-hydroxycarbamoyl-methyl)-4-methyl-pentanoylamine]-2-phenyl-ethanoic acid cyclopentyl ester]
Inhibition of cell proliferation (in words), anti-CD3 (Human PBMCs [1]): inhibited cell proliferation in a dose related fashion

C=CC[C@H](C(=O)NO)[C@@H](CC(C)C)C(=O)N[C@@H](Cc1ccccc1)C(=O)OCC [Example 2, 2S-(3S-Hydroxycarbamoyl-2R-isobutyl-hex-5-enoylamino)-3-phenylpropionic acid ethyl ester]
IC50 (Human PBMCs [4]): 4800 nM

C=CC[C@H](C(=O)NO)[C@@H](CC(C)C)C(=O)N[C@@H](COC(C)(C)C)C(=O)OC1CCCC1 [Example 39, 3-tert-Butoxy-2S-(3S-hydroxycarbamoyl-2R-isobutyl-hex-5-enoylamino)-propionic acid cyclopentyl ester]
Inhibition of cell proliferation (in words), anti-CD3 (Human PBMCs [1]): inhibited cell proliferation in a dose related fashion

C=CC[C@H](C(=O)NO)[C@@H](CC(C)C)C(=O)N[C@@H](Cc1ccccc1)C(=O)OC(C)C [Example 3, 2S-(3S-Hydroxycarbamoyl-2R-isobutyl-hex-5-enoylamino)-3-phenylpropionic acid isopropyl ester]
TNF, ACTIVATED PWM (TNF [5]; 10 μM, dmso 1390 pg/ml): 495 pg/mL | inhibition at 10 µM (TNF [5]; Homo sapiens, PBMC, versus dmso, read-out: reduction of the level of TNF production, PWM system): 64% | IC50 (Human PBMCs [4]): 2400 nM | TNF, ACTIVATED PPD (TNF [6]; 10 μM, dmso 50 pg/ml): 15 pg/mL | inhibition at 10 µM (TNF [6]; Homo sapiens, PBMC, versus dmso, read-out: reduction of the level of TNF production, PPD system): 70% | IC50 (Human PBMCs [3]): 1800 nM

CC(C)C[C@H](CC(=O)NO)C(=O)N[C@@H](Cc1ccccc1)C(=O)OC(C)C [Example 6, 2S-(2R-Hydroxycarbamoylmethyl-4-methyl-pentanoylamino)-3-phenyl-propionic acid isopropyl ester]
Inhibition of cell proliferation (in words), anti-CD3 (Human PBMCs [1]): inhibited cell proliferation in a dose related fashion

C=CC[C@H](C(=O)NO)[C@@H](CC(C)C)C(=O)N[C@H](C(=O)OC1CCCC1)c1ccccc1 [Example 40, 2S-(3S-Hydroxycarbamoyl-2R-isobutyl-hex-5-enoylamino)-2-phenylethanoic acid cyclopentyl ester]
Inhibition of cell proliferation (in words), anti-CD3 (Human PBMCs [1]): inhibited cell proliferation in a dose related fashion | TNF production (in words) (TNF alpha): reduced the level of TNF production | TNF alpha (TNF alpha): 600 pg/mL
